The structures appear in SMILES notation. Where only a bound is given, the exact number is not on record here.

As usually defined, the IC50 is the concentration that inhibits the measured activity by half. In general, inhibition refers to the drop in the measured response relative to a control, in per cent. Read a low inhibition as a response near the control.

In the first test the test system is PANC-1 cells. Kind of test: Quantification of F-2,6-P2 in PANC-1 cells. The test is classed as cell-based. Particulars: Homo sapiens, PANC-1; read-out: IC50 based on quantification of F-2,6-P2. An excerpt: The relative kinase (formation) and phosphatase (degradation) activities of the bi-functional enzymes PFKFB3 and PFKFB4 control the intracellular levels of the regulator F-2,6-P2, which acts as an allosteric activator of glycolysis. The levels of F-2,6-P2 have been determined in three different cancer cell lines (MCF-7, PANC-1 and NUGC-3) using the van Shaftingen assay. The assay protocols described under “Methods for measurement of enzymatic activity of PFKFB3 and PFKFB4, Method A” have been adapted for the measurement of the inhibitory effect of compounds on the kinase activity of the various isoforms of the bifunctional enzyme (endogenously expressed) in the different cell lines. The modifications are described in the protocol below. All reagents were purchased from commercial sources or prepared inhouse.
Cell Line B (PANC-1, Human Pancreatic Carcinoma Cell Line)
• Cells: PANC-1 (ATCC-CRL-1469). Lot. no: 58564651. • Growth medium: Dulbecco's Modified Eagle's Medium, DMEM, ATCC-30-2002 10% FBS, Invitrogen, 10106-169
Cells were seeded at a concentration of 250 000 cells/mL in 100 μL growth medium (25 000 cells/well)
Starvation medium: DMEM/F12 without phenol red and glucose free, SVA, 991373 0.25% FBS, Invitrogen, 10106-169
Induction medium: DMEM/F12 without phenol red and glucose free, SVA, 991373 0.25% FBS, Invitrogen, 10106-169 (same as starvation medium)
Cells were seeded in 96-well Corning Costar tissue culture plates (CLS3595, Sigma-Aldrich) using the concentrations specified above for the three different cell lines A-C and incubated over night at 37° C. and 5% CO2. Row A was left empty. Next day the growth medium was discarded and replaced with 100 μL starvation medium. The plates were incubated for 18 h at 37° C. and 5% CO2. After 18 h of starvation the cells were induced with 100 μL compound or control solutions. Compounds were either tested in two concentrations (50 μM and 10 μM) or in dose response curves starting from 50 μM and the final DMSO concentration in assay plates was 0.5%. Also a dose response curve of a reference inhibitor was included in row H on each plate. All compounds were tested in duplicate plates. Compounds (in 96 well CLS 3365, Sigma-Aldrich) were serial diluted in DMSO from 10 mM compound DMSO stock solutions with Janus (automated liquid handling workstation from PerkinElmer). 5 μL were transferred to a Greiner deep well plate (736-0155, VWR) with 495 μL starvation medium. The final start concentration of compounds in the dilution plate was 100 μM, 1% DMSO. For compounds tested as single points, 10 mM compound solutions were diluted five fold in DMSO to 2 mM, followed by the transfer of 5 μL to separate dilution plates with 495 μL starvation medium. The final concentration of compounds in these dilution plates were 100 or 20 μM, respectively, and final concentration of DMSO was 1%. The plates were incubated at 37° C. and 5% CO2 for 1 h, followed by the addition of 10 μL 20 mM D-glucose in starvation medium. Controls, with and without 1 mM glucose, were included in row B. The final assay volume was 210 μL per well. After 2 h of incubation at 37° C. and 5% CO2, supernatants were discarded and the cells were lysed by the addition of 25 μL 250 mM NaOH. The plates were incubated at 37° C. and 5% CO2 for 5 min followed by an addition of 75 μL MilliQ dH2O. The supernatants were further diluted with 210 μL MilliQ dH2O to a final concentration of 20 mM NaOH. 200 μL were transferred to NUNC 96-well plates (7322661, VWR) and the plates were sealed and stored at −20° C. until analysis.
The amount of F-2,6-P2 was quantified based on the coupled enzymatic reaction described by Van Schaftingen. If necessary the samples were further diluted in 20 mM NaOH before quantification. Plates stored at −20° C. were thawed and the F-2,6-P2 quantification was initiated by transferring 40 μL from each well of the NUNC plate to the corresponding position in a trans-parent 96-well SpectraPlate-MB (6005649, PerkinElmer). […]
Consider `Cc1c(S(=O)(=O)Nc2cccc(C(=O)OCCCN(C)C)c2)sc2ccc(Cl)cc12` [Example 118, 3-(Dimethylamino)propyl 3-{[(5-chloro-3-methyl-1-benzothiophen-2-yl)sulfonyl]amino}benzoate], for which the IC50 amounted to 2.8 µM.
In the case of `COC(=O)c1cccc(NS(=O)(=O)c2sc3c(OC)cccc3c2C)c1` [Example 121, Methyl 3-{[(7-methoxy-3-methyl-1-benzothiophen-2-yl)sulfonyl]amino}benzoate], the IC50 was 9 µM.
As for `COC(=O)c1cccc(NS(=O)(=O)c2sc3c(Cl)cccc3c2C)c1` [Example 122, Methyl 3-{[(7-chloro-3-methyl-1-benzothiophen-2-yl)sulfonyl]amino}benzoate], the IC50 amounted to 8.7 µM.
As to `CCCOC(=O)c1cccc(NS(=O)(=O)c2sc3ccc(Cl)cc3c2C)c1` [Example 112, Propyl 3-{[(5-chloro-3-methyl-1-benzothien-2-yl)sulfonyl]amino}benzoate], the IC50 was 4.3 µM.
Same read-out and setting: as for `COC(=O)c1cccc(NS(=O)(=O)c2sc3ccc(Br)cc3c2C)c1` [Example 120, Methyl 3-{[(5-bromo-3-methyl-1-benzothiophen-2-yl)sulfonyl]amino}benzoate], the figure is 3.5 µM.
Take `Cc1c(S(=O)(=O)Nc2cccc(C(=O)OC(C)C)c2)sc2ccc(Cl)cc12` [Example 108, Isopropyl 3-{[(5-chloro-3-methyl-1-benzothien-2-yl)sulfonyl]amino}benzoate]: the IC50 turned out to be 3.1 µM.
For `COC(=O)c1cccc(NS(=O)(=O)c2ccc(-c3csc(C)n3)s2)c1` [Example 88, Methyl 3-({[5-(2-methyl-1,3-thiazol-4-yl)-2-thienyl]sulfonyl}amino)benzoate], the IC50 was determined as 5.4 µM.
Regarding `COC(=O)Cn1nnc(-c2cccc(NS(=O)(=O)c3sc4ccc(C(C)C)cc4c3C)c2)n1` [Example 119, Methyl {5-[3-({[3-methyl-5-(1-methylethyl)-1-benzothiophen-2-yl]sulfonyl}amino)phenyl]-2H-tetrazol-2-yl}acetate], the IC50 stood at 7 µM.
As for `COC(=O)c1cccc(NS(=O)(=O)c2sc3ccc(C(C)C)cc3c2C)c1` [Example 92, Methyl 3-({[3-methyl-5-(1-methylethyl)-1-benzothiophen-2-yl]sulfonyl}amino)benzoate], the IC50 came to 0.5 µM.
As to `Cc1c(S(=O)(=O)Nc2cccc(-c3nnn[nH]3)c2)sc2ccc(C(C)C)cc12` [Example 4, 5-Isopropyl-3-methyl-N-[3-(1H-tetrazol-5-yl)phenyl]benzothiophene-2-sulfonamide], the IC50 was 7.5 µM.
Take `Cc1c(S(=O)(=O)Nc2cccc(C(=O)OC3CCOC3)c2)sc2ccc(Cl)cc12` (stereo not drawn) [Example 116, Tetrahydrofuran-3-yl 3-{[(5-chloro-3-methyl-1-benzothiophen-2-yl)sulfonyl]amino}benzoate]: the IC50 is 1.3 µM.

Still in this test, the particulars now being: Homo sapiens; at 12.5 μM in PANC-1 cells.
For the compound `COCCOC(=O)c1cccc(NS(=O)(=O)c2sc3ccc(Cl)cc3c2C)c1` [Example 109, 2-Methoxyethyl 3-{[(5-chloro-3-methyl-1-benzothiophen-2-yl)sulfonyl]amino}benzoate], the inhibition at 12.5 µM was > 50%.
As to `COC(=O)c1cccc(NS(=O)(=O)c2oc3ccc(C(C)C)cc3c2C)c1` [Example 123, Methyl 3-({[3-methyl-5-(1-methylethyl)-1-benzofuran-2-yl]sulfonyl}amino)benzoate], the inhibition at 12.5 µM is > 50%.
Consider `CCOC(=O)c1sc(NS(=O)(=O)c2cc(-c3cc(F)ccc3F)c(Cl)s2)nc1C` [Example 127, Ethyl 2-({[5-chloro-4-(2,5-difluorophenyl)thiophen-2-yl]sulfonyl}amino)-4-methyl-1,3-thiazole-5-carboxylate], for which the inhibition at 12.5 µM was > 50%.
Same read-out and setting: as for `Cc1c(S(=O)(=O)Nc2cccc(C(=O)OCCn3cccc3)c2)sc2ccc(Cl)cc12` [Example 106, 2-(1H-Pyrrol-1-yl)ethyl 3-{[(5-chloro-3-methyl-1-benzothien-2-yl)sulfonyl]amino}benzoate], the figure is > 50%; as for `CCOC(=O)c1sc(NS(=O)(=O)c2sc3ccc(Cl)cc3c2C)nc1C` [Example 126, Ethyl 2-{[(5-chloro-3-methyl-1-benzothiophen-2-yl)sulfonyl]amino}-4-methyl-1,3-thiazole-5-carboxylate], > 50%; as for `Cc1c(S(=O)(=O)Nc2cccc(C(=O)Oc3ccccc3)c2)sc2ccc(Cl)cc12` [Example 115, Phenyl 3-{[(5-chloro-3-methyl-1-benzothiophen-2-yl)sulfonyl]amino}benzoate], > 50%.
With `CCCCCOC(=O)c1cccc(NS(=O)(=O)c2sc3ccc(Cl)cc3c2C)c1` [Example 113, Pentyl 3-{[(5-chloro-3-methyl-1-benzothiophen-2-yl)sulfonyl]amino}benzoate], the inhibition at 12.5 µM is > 50%.
Take `Cc1c(S(=O)(=O)Nc2cccc(C(=O)OCc3ccccc3)c2)sc2ccc(Cl)cc12` [Example 111, Benzyl 3-{[(5-chloro-3-methyl-1-benzothiophen-2-yl)sulfonyl]amino}benzoate]: the inhibition at 12.5 µM was > 50%.
Turning to `CCOC(=O)c1cccc(NS(=O)(=O)c2sc3ccc(Cl)cc3c2C)c1` [Example 107, Ethyl 3-{[(5-chloro-3-methyl-1-benzothien-2-yl)sulfonyl]amino}benzoate], the inhibition at 12.5 µM was > 50%.
Same read-out and setting: with `Cc1c(S(=O)(=O)Nc2cccc(C(=O)OCC3CCOC3)c2)sc2ccc(Cl)cc12` (stereo not drawn) [Example 117, Tetrahydrofuran-3-ylmethyl 3-{[(5-chloro-3-methyl-1-benzothiophen-2-yl)sulfonyl]amino}benzoate] the figure was > 50%.

These data come from patent publication US9233946B2, “Sulfonamide compounds” (KANCERA AB, priority 2010, dated 2016).
